Results taken from patent publication US11407822B2, “Treatment of fibrodysplasia ossificans progressiva” (REGENERON PHARMACEUTICALS, INC., priority 2014, dated 2022).

Tests used:
[1] = system: Acvr1[R206H]COIN/+; Gt(ROSA26)SorCreERt2/+ mice; test: Example 2: ectopic bone formation in a mouse model of FOP after tamoxifen, in vivo μCT (ACVR1 kinase inhibitor); details: for mice showing ectopic bone formation / size of ectopic bone lesions: 3 mg/kg twice daily for 4 weeks; for mice showing ectopic bone formation: 4 weeks post initiation of tamoxifen, μCT; for size of ectopic bone lesions: versus vehicle control group
Source text: (§1) ACVR1 and/or ACVR2 antagonists and variants or fragments thereof can also be screened for activity in an in vivo assay. For example, ACVR1 or ACVR2 antagonists or variants thereof can be screened for their ability to treat FOP in a mouse model of FOP (e.g., ability to decrease ectopic bone formation). Transgenic knock-in mice have been developed that carry a conditional allele encoding Acvr1[R206H]. These Acvr1^[R206H]COIN/+ mice are described in U.S. Ser. No. 14/207,320 and PCT/US2014/026582, which are incorporated by reference herein in its entirety. This allele expresses the R206H variant only after activation by Cre recombinase. This allows Cre-dependent activation of Acvr1[R206H] expression at specific tissues and at specific time by using different types of Cre driver lines. In this manner the resulting mice also bypass the perinatal lethality that has been observed with a non-regulated knock-in allele of Acvr1[R206H]. Activation of Acvr1[R206H] expression in young or in adult mice results in ectopic bone formation. […] Tamoxifen activates expression of Cre which then acts upon the Acvr1^[R206H]COIN/+ to convert it to Acvr1^[R206H]/+, thereby converting the genotype of the mice to mirror the genotype of the FOP patients that are ACVR1[R206H]. The Acvr1^[R206H] allele expresses Acvr1[R206H], and that is adequate to drive the development of FOP in the Acvr1^[R206H]/+; Gt(ROSA26)Sor^CreERt2/+ mice. This bypasses the embryonic lethality experienced with conventional Acvr1^[R206H] knock-in mice, Acvr1^tm1Emsh (http://www.informatics.jax.org/allele/key/828153). After tamoxifen treatment, the ACVR1, ACVR2A and/or ACVR2B antagonists or a control can be administered to the Acvr1^[R206H]COIN/+; Gt(ROSA26)Sor^CreERt2/+ mice and the animals monitored for ectopic bone formation. See Chakkalakal S A, et al. (20120 An Acvr1 R206H knock-in mouse has fibrodysplasia ossificans progressiva. J Bone Miner Res. 27(8):1746-56. This assay is described in detail in the Examples below.
16 Acvr1^[R206H]COIN/+; Gt(ROSA26)Sor^CreERt2/+ mice were given tamoxifen at 1 mg/mouse dose i.p. for eight days. Eight mice were treated with 3 mg/kg of the ACVR1 kinase inhibitor LDN-212854 (Mohedas et al. (2013) ACS Chem. Biol. 8:1291-1302) twice daily for 4 weeks. Eight mice were treated with vehicle control twice daily for 4 weeks. Mice were monitored using in vivo μCT at baseline, 2 and 4 weeks post initiation of tamoxifen administration.

[2] = system: Acvr1[R206H]COIN/+; Gt(ROSA26)SorCreERt2/+ mice; test: Example 5: ectopic bone formation in a mouse model of FOP after tamoxifen, in vivo μCT, dose comparison of Activin A antibody; details: for mice that developed ectopic bone: nine mice, after 4 weeks, μCT; for average total volume of ectopic bone: at 6.5 weeks, calculated from μCT images
Source text: as §1
35 Acvr1[R206H]COIN/+; Gt(ROSA26)SorCreERt2/+ mice were given with tamoxifen at 40 mg/kg i.p. for eight days. Eight mice were treated with 25 mg/kg isotype control antibody (REGN1945), nine mice were treated with 25 mg/kg of Activin A antibody (H4H10446P) (REGN2477), nine mice were treated with 10 mg/kg of Activin A antibody (REGN2477) and nine mice were treated with 1 mg/kg of Activin A antibody (REGN2477) weekly for 6 weeks. Mice were monitored using in vivo μCT at baseline, 2, 3, 4 and 6.5 weeks post initiation of tamoxifen administration. The volume of ectopic bone in each mouse was calculated from μCT images. […] At 6.5 weeks the average total volume of ectopic bone in the isotype treated group was 65.4 mm3 compared to 1.87 mm^3 in the 25 mg/kg, 0.3 mm^3 in the 10 mg/kg and 7.3 mm^3 in the 1 mg/kg Activin antibody treated groups.

[3] = target: T1, Activin A binding to ACVR2A or ACVR2B (Homo sapiens, UniProt P08476); details: as described for the antibody in US2015/0037339 or U.S. Pat. No. 8,309,082; cited from earlier work
T1 sequence (P08476 311-426): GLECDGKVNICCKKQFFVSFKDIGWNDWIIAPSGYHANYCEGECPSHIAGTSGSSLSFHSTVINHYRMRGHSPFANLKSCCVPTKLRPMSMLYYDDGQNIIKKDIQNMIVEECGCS

[4] = system: Acvr1[R206H]COIN/+; Gt(ROSA26)SorCreERt2/+ mice; test: Example 4: ectopic bone formation in a mouse model of FOP after tamoxifen, in vivo μCT (Activin A antibody, Acvr2a/Acvr2b antibody); details: for protection from / inhibition of ectopic bone formation after tamoxifen treatment: mouse, in vivo
Source text: as §1, with “See Chakkalakal S A, et al. (20120 An Acvr1 R206H knock-in mouse has fibrodysplasia ossificans progressiva. J Bone Miner Res. 27(8):1746-56. This assay is described in detail in the Examples below.” left out
26 Acvr1[R206H]COIN/+; Gt(ROSA26)SorCreERt2/+ mice were given with tamoxifen at a 40 mg/kg dose i.p. for eight days. […] Mice were monitored using in vivo μCT at baseline, 2, 3 and 4 weeks post initiation of tamoxifen administration. […]

[5] = system: Activin A mediated signaling through ACVR2A and/or ACVR2B; details: as described for the antibody in US2015/0037339 or U.S. Pat. No. 8,309,082; cited from earlier work
[6] = system: Acvr1[R206H]COIN/+; Gt(ROSA26)SorCreERt2/+ mice; test: Example 3: ectopic bone formation in a mouse model of FOP after tamoxifen, in vivo μCT (Activin A antibody, ACVR2a-Fc)
Source text: ACVR1 and/or ACVR2 antagonists and variants or fragments thereof can also be screened for activity in an in vivo assay. For example, ACVR1 or ACVR2 antagonists or variants thereof can be screened for their ability to treat FOP in a mouse model of FOP (e.g., ability to decrease ectopic bone formation). Transgenic knock-in mice have been developed that carry a conditional allele encoding Acvr1[R206H]. These Acvr1^[R206H]COIN/+ mice are described in U.S. Ser. No. 14/207,320 and PCT/US2014/026582, which are incorporated by reference herein in its entirety. This allele expresses the R206H variant only after activation by Cre recombinase. This allows Cre-dependent activation of Acvr1[R206H] expression at specific tissues and at specific time by using different types of Cre driver lines. […] After tamoxifen treatment, the ACVR1, ACVR2A and/or ACVR2B antagonists or a control can be administered to the Acvr1^[R206H]COIN/+; Gt(ROSA26)Sor^CreERt2/+ mice and the animals monitored for ectopic bone formation. […]
23 Acvr1^[R206H]COIN/+; Gt(ROSA26)^SorCreERt2/+ mice were treated with tamoxifen at 1 mg/mouse dose i.p. for eight days. […] Mice were monitored using in vivo micro computer tomography (μCT) at baseline, 2 and 3 weeks post initiation of tamoxifen administration. […]

Row | Compound | mice showing ectopic bone formation [1] | mice showing ectopic bone formation ([1]; listed as LDN212854) | size of ectopic bone lesions [1] | size of ectopic bone lesions ([1]; listed as LDN212854) | protection from ectopic bone formation after tamoxifen treatment ([1]; LDN-212854 treatment) | mice that developed ectopic bone ([2]; 1 mg/kg weekly) [mice] | average total volume of ectopic bone ([2]; 1 mg/kg weekly) [mm^3] | mice that developed ectopic bone ([2]; 10 mg/kg weekly) [mice] | average total volume of ectopic bone ([2]; 10 mg/kg weekly) [mm^3] | mice that developed ectopic bone ([2]; 25 mg/kg weekly) [mice] | average total volume of ectopic bone ([2]; 25 mg/kg weekly) [mm^3] | effectiveness of varying doses against ectopic bone formation (FIG. 5) ([2]; doses 1, 10 and 25 mg/kg versus isotype control antibody) | protection from ectopic bone formation after tamoxifen treatment ([2]; mouse, in vivo) | inhibition of Activin A binding to ACVR2A and/or ACVR2B [3] | mice that developed ectopic bone ([4]; 10 mg/kg twice weekly, nine mice per group, 4 weeks post initiation of tamoxifen, μCT) | protection from / inhibition of ectopic bone formation after tamoxifen treatment ([4]; listed as Activin A) | protection from / inhibition of ectopic bone formation after tamoxifen treatment ([4]; listed as antibody against Activin A) | inhibition of Activin A signal transduction through ACVR2A and/or ACVR2B [5] | mice showing development of ectopic bone ([6]; 25 mg/kg twice weekly, eight mice, 3 weeks post initiation of tamoxifen, μCT) | inhibition of formation of ectopic bone nodules (FIG. 3) ([6]; compared with isotype control antibody and ACVR2A-Fc)
1 | c1cc(-c2cnn3cc(-c4ccc(N5CCNCC5)cc4)cnc23)c2cccnc2c1 [LDN-212854] | 3 out of 8 | No ectopic bone nodules could be detected in mice numbered 10, 11, 14, 15 or 16 | small compared to the vehicle control group | Small ectopic bone nodules have formed in mice numbered 9, 12 and 13 | protected from ectopic bone formation |  |  |  |  |  |  |  |  |  |  |  |  |  |  | 
2 | H4H10446P: Antibody against Activin A designated H4H10446P in US2015037339; heavy and light chain variable regions present SEQ ID NOs:1 and 5 |  |  |  |  |  | 2 | 7.3 | 2 | 0.3 | 2 | 1.87 | Dosages between 1 mg/kg and 25 mg/kg were shown to be effective with 10 mg/kg being the most effective dose tested | protected from ectopic bone formation | does not inhibit strongly, if at all | one | protected from ectopic bone formation | inhibited formation of ectopic bone nodules | inhibits Activin A mediated signaling through ACVR2A and/or ACVR2B | none | inhibited formation of ectopic bone nodules most effectively
